Test results published in ChEMBL document CHEMBL4196087 (Eur J Med Chem, 2018).

How the values were obtained:
HL-60 = assay: Antiproliferative activity against human HL60 cells after 48 hrs by MTT assay; format: functional, cell-based; settings: HL-60, 48 h
NCI-H226 [1] = assay: Antiproliferative activity against human NCI-H226 cells after 48 hrs by MTT assay; format: functional, cell-based; settings: NCI-H226, 48 h
IGROV-1 [2] = assay: Antiproliferative activity against human IGROV1 cells after 48 hrs by MTT assay; format: functional, cell-based; settings: IGROV-1, 48 h
UO-31 [3] = assay: Antiproliferative activity against human UO31 cells after 48 hrs by MTT assay; format: functional, cell-based; settings: UO-31, 48 h
MDA-MB-468 [4] = assay: Antiproliferative activity against human MDA-MB-468 cells after 48 hrs by MTT assay; format: functional, cell-based; settings: MDA-MB-468, 48 h
UO-31 [5] = assay: Induction of apoptosis in human UO31 cells assessed as caspase-3 activation by measuring active caspase-3 level at 6.44 uM by […] (reference value: 66 pg/ml); format: functional
CCRF-CEM = assay: Growth inhibition of human CCRF-CEM cells at 10^-5 M incubated for 48 hrs by sulforhodamine B assay relative to control; format: functional; settings: read-out: GI
HL-60(TB) = assay: Growth inhibition of human HL-60(TB) cells at 10^-5 M incubated for 48 hrs by sulforhodamine B assay relative to control; format: functional; settings: HL-60, 48 h, read-out: GI
K562 = assay: Growth inhibition of human K562 cells at 10^-5 M incubated for 48 hrs by sulforhodamine B assay relative to control; format: functional; settings: K562, 48 h, read-out: GI
MOLT-4 = assay: Growth inhibition of human MOLT4 cells at 10^-5 M incubated for 48 hrs by sulforhodamine B assay relative to control; format: functional; settings: MOLT-4, 48 h, read-out: GI
RPMI-8226 = assay: Growth inhibition of human RPMI8226 cells at 10^-5 M incubated for 48 hrs by sulforhodamine B assay relative to control; format: functional; settings: RPMI-8226, 48 h, read-out: GI
HOP-62 = assay: Growth inhibition of human HOP62 cells at 10^-5 M incubated for 48 hrs by sulforhodamine B assay relative to control; format: functional; settings: HOP-62, 48 h, read-out: GI
HOP-92 = assay: Growth inhibition of human HOP92 cells at 10^-5 M incubated for 48 hrs by sulforhodamine B assay relative to control; format: functional; settings: HOP-92, 48 h, read-out: GI
NCI-H226 [6] = assay: Growth inhibition of human NCI-H226 cells at 10^-5 M incubated for 48 hrs by sulforhodamine B assay relative to control; format: functional; settings: NCI-H226, 48 h, read-out: GI
SF-539 = assay: Growth inhibition of human SF539 cells at 10^-5 M incubated for 48 hrs by sulforhodamine B assay relative to control; format: functional; settings: SF-539, 48 h, read-out: GI
SNB-75 = assay: Growth inhibition of human SNB75 cells at 10^-5 M incubated for 48 hrs by sulforhodamine B assay relative to control; format: functional; settings: SNB-75, 48 h, read-out: GI
LOX IMVI = assay: Growth inhibition of human LOXIMVI cells at 10^-5 M incubated for 48 hrs by sulforhodamine B assay relative to control; format: functional; settings: read-out: GI
SK-MEL-5 = assay: Growth inhibition of human SK-MEL-5 cells at 10^-5 M incubated for 48 hrs by sulforhodamine B assay relative to control; format: functional; settings: SK-MEL-5, 48 h, read-out: GI
IGROV-1 [7] = assay: Growth inhibition of human IGROV1 cells at 10^-5 M incubated for 48 hrs by sulforhodamine B assay relative to control; format: functional; settings: IGROV-1, 48 h, read-out: GI
A498 = assay: Growth inhibition of human A498 cells at 10^-5 M incubated for 48 hrs by sulforhodamine B assay relative to control; format: functional; settings: A498, 48 h, read-out: GI
UO-31 [8] = assay: Growth inhibition of human UO31 cells at 10^-5 M incubated for 48 hrs by sulforhodamine B assay relative to control; format: functional; settings: UO-31, 48 h, read-out: GI
PC-3 = assay: Growth inhibition of human PC3 cells at 10^-5 M incubated for 48 hrs by sulforhodamine B assay relative to control; format: functional; settings: PC-3, 48 h, read-out: GI
MCF7 = assay: Growth inhibition of human MCF7 cells at 10^-5 M incubated for 48 hrs by sulforhodamine B assay relative to control; format: functional; settings: MCF7, 48 h, read-out: GI
MDA-MB-231 = assay: Growth inhibition of human MDA-MB-231 cells at 10^-5 M incubated for 48 hrs by sulforhodamine B assay relative to control; format: functional; settings: MDA-MB-231, 48 h, read-out: GI
T47D = assay: Growth inhibition of human T47D cells at 10^-5 M incubated for 48 hrs by sulforhodamine B assay relative to control; format: functional; settings: read-out: GI
MDA-MB-468 [9] = assay: Growth inhibition of human MDA-MB-468 cells at 10^-5 M incubated for 48 hrs by sulforhodamine B assay relative to control; format: functional; settings: MDA-MB-468, 48 h, read-out: GI
UO-31 [10] = assay: Potency index, ratio of doxorubicin IC50 to compound IC50 for antiproliferative activity against human UO31 cells; format: functional
NCI-H226 [11] = assay: Potency index, ratio of doxorubicin IC50 to compound IC50 for antiproliferative activity against human NCI-H226 cells; format: functional
IGROV-1 [12] = assay: Potency index, ratio of doxorubicin IC50 to compound IC50 for antiproliferative activity against human IGROV1 cells; format: functional
NCI-H226 [13] = assay: Antiproliferative activity against human NCI-H226 cells after 48 hrs by SRB assay; format: functional; settings: NCI-H226, 48 h, read-out: LC50 (the source's name)
IGROV-1 [14] = assay: Antiproliferative activity against human IGROV1 cells after 48 hrs by SRB assay; format: functional; settings: IGROV-1, 48 h, read-out: LC50 (the source's name)
UO-31 [15] = assay: Antiproliferative activity against human UO31 cells after 48 hrs by SRB assay; format: functional; settings: UO-31, 48 h
UO-31 [16] = assay: Cell cycle arrest in human UO31 cells assessed as accumulation at G1 phase at 0.72 uM after 24 hrs by propidium iodide staining based flow cytometry (reference value: 69.55%); format: functional
UO-31 [17] = assay: Cell cycle arrest in human UO31 cells assessed as accumulation at G2 phase at 0.72 uM after 24 hrs by propidium iodide staining based flow cytometry (reference value: 5.49%); format: functional
UO-31 [18] = assay: Cell cycle arrest in human UO31 cells assessed as accumulation at S phase at 0.72 uM after 24 hrs by propidium iodide staining based flow cytometry (reference value: 24.47%); format: functional
UO-31 [19] = assay: Cell cycle arrest in human UO31 cells assessed as apoptotic cells at 0.72 uM after 24 hrs by propidium iodide staining based flow cytometry (reference value: 0.49%); format: functional
UO-31 [20] = assay: Cell cycle arrest in human UO31 cells assessed as accumulation at pre-G1 phase at 0.72 uM after 24 hrs by propidium iodide staining based flow cytometry relative to control; format: functional
UO-31 [21] = assay: Cell cycle arrest in human UO31 cells assessed as accumulation at G2/M phase at 0.72 uM after 24 hrs by propidium iodide staining based flow cytometry relative to control; format: functional
UO-31 [22] = assay: Induction of apoptosis in human UO31 cells assessed as live cells at 0.72 uM after 24 hrs by Annexin V-FITC/propidium iodide staining based low cytometry (reference value: 97.84%); format: functional
UO-31 [23] = assay: Induction of apoptosis in human UO31 cells assessed as early apoptotic cells at 0.72 uM after 24 hrs by Annexin V-FITC/propidium iodide staining based flow cytometry (reference value: 0.19%); format: functional
UO-31 [24] = assay: Induction of apoptosis in human UO31 cells assessed as late apoptotic cells at 0.72 uM after 24 hrs by Annexin V-FITC/propidium iodide staining based flow cytometry (reference value: 0.22%); format: functional
UO-31 [25] = assay: Induction of apoptosis in human UO31 cells assessed as necrotic cells at 0.72 uM after 24 hrs by Annexin V-FITC/propidium iodide staining based flow cytometry (reference value: 0.08%); format: functional
UO-31 [26] = assay: Induction of apoptosis in human UO31 cells assessed as caspase-3 activation by measuring active caspase-3 level at 0.72 uM by […] (reference value: 66 pg/ml); format: functional
DNA topoisomerase 2-beta [27] = target: T1, DNA topoisomerase 2-beta (Homo sapiens, UniProt Q02880); assay: Inhibition of human topoisomerase-2B after 2 hrs by ELISA
T1 sequence (Q02880 whole entry): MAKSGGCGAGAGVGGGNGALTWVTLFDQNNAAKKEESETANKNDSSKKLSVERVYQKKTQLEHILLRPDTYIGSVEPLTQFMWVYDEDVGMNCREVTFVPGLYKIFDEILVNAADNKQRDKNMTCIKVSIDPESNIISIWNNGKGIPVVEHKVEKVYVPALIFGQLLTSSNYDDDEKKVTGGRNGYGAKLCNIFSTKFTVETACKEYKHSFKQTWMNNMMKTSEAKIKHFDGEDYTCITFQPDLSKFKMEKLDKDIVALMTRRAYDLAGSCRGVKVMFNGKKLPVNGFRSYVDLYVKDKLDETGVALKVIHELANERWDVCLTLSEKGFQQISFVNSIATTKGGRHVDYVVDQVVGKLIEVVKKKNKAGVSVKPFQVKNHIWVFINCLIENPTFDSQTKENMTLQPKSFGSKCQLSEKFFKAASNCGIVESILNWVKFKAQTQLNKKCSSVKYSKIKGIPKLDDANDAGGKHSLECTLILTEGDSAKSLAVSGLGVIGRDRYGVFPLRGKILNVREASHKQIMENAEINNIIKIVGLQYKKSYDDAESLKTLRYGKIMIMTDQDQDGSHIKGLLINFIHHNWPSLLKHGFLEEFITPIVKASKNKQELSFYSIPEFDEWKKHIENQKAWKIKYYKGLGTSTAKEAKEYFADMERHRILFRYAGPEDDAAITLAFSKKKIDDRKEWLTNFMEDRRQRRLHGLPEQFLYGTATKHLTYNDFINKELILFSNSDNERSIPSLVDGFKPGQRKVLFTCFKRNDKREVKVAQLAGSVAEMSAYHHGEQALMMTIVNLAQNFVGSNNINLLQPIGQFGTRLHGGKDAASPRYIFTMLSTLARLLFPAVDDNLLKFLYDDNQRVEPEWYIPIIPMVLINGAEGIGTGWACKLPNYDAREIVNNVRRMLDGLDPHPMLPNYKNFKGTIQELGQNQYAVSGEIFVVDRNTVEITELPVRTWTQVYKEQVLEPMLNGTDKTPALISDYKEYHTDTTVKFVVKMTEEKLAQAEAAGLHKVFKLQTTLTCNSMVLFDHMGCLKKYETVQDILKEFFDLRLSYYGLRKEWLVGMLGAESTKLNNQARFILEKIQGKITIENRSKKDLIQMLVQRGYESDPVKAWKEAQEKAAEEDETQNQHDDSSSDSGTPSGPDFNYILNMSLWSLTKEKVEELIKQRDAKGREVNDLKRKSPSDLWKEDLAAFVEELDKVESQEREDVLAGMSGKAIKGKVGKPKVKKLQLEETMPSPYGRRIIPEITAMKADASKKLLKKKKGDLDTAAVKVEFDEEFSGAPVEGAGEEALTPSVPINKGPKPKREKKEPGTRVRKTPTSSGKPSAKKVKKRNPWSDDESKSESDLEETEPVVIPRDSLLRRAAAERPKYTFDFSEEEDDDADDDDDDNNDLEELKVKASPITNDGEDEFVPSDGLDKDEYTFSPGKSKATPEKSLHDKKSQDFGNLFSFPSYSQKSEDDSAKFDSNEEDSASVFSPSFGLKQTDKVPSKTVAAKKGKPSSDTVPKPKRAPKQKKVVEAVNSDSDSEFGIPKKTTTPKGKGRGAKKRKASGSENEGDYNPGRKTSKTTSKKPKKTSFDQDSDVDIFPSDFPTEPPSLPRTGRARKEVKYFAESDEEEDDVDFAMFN

DNA topoisomerase 2-beta [28] = target: T1, DNA topoisomerase 2-beta; assay: Potency index, ratio of doxorubicin IC50 to compound IC50 for inhibition of human topoisomerase-2B
DNA topoisomerase 2-beta [29] = target: T1, DNA topoisomerase 2-beta; assay: Potency index, ratio of amsacrine IC50 to compound IC50 for inhibition of human topoisomerase-2B
Bacillus subtilis = assay: Antibacterial activity against Bacillus subtilis at 37 degC measured after 24 hrs by agar disc diffusion method; format: functional
Staphylococcus aureus = assay: Antibacterial activity against Staphylococcus aureus at 37 degC measured after 24 hrs by agar disc diffusion method; format: functional
Escherichia coli = assay: Antibacterial activity against Escherichia coli at 37 degC measured after 24 hrs by agar disc diffusion method; format: functional
Pseudomonas aeruginosa = assay: Antibacterial activity against Pseudomonas aeruginosa at 37 degC measured after 24 hrs by agar disc diffusion method; format: functional

SMILES: COc1cccc2c1C(=O)c1c(O)c3c(c(O)c1C2=O)C[C@@](O)(C(=O)CO)C[C@@H]3O[C@H]1C[C@H](N)[C@H](O)[C@H](C)O1 [DOXORUBICIN]
- IC50 (HL-60): 8.91 µM
- IC50 (NCI-H226 [1]): 5.07 µM
- IC50 (IGROV-1 [2]): 4.36 µM
- IC50 (UO-31 [3]): 6.44 µM
- IC50 (MDA-MB-468 [4]): 2.81 µM
- Activity (UO-31 [5]): 375.6 pg/mL

SMILES: O=C(CN1CCN(c2cc3c(cc2F)c(=O)c(C(=O)O)cn3C2CC2)CC1)N/N=C/c1cc2ccccc2[nH]1
- inhibition of growth at 10 µM (CCRF-CEM): < 20%
- inhibition of growth at 10 µM (HL-60(TB)): < 20%
- inhibition of growth at 10 µM (K562): < 20%
- inhibition of growth at 10 µM (MOLT-4): < 20%
- inhibition of growth at 10 µM (RPMI-8226): < 20%
- inhibition of growth at 10 µM (HOP-62): 29%
- inhibition of growth at 10 µM (HOP-92): 29.8%
- inhibition of growth at 10 µM (NCI-H226 [6]): 34.4%
- inhibition of growth at 10 µM (SF-539): < 20%
- inhibition of growth at 10 µM (SNB-75): < 20%
- inhibition of growth at 10 µM (LOX IMVI): 36.6%
- inhibition of growth at 10 µM (SK-MEL-5): < 20%
- inhibition of growth at 10 µM (IGROV-1 [7]): 43.5%
- inhibition of growth at 10 µM (A498): < 20%
- inhibition of growth at 10 µM (UO-31 [8]): 34.1%
- inhibition of growth at 10 µM (PC-3): 20.3%
- inhibition of growth at 10 µM (MCF7): < 20%
- inhibition of growth at 10 µM (MDA-MB-231): 28.1%
- inhibition of growth at 10 µM (T47D): 25.5%
- inhibition of growth at 10 µM (MDA-MB-468 [9]): < 20%
- IC50 (NCI-H226 [1]): 1.02 µM
- IC50 (IGROV-1 [2]): 0.75 µM
- IC50 (UO-31 [3]): 0.72 µM
- Ratio IC50 (UO-31 [10]): 1.5 - 9
- Ratio IC50 (NCI-H226 [11]): 4.9
- Ratio IC50 (IGROV-1 [12]): 5.8
- CC50 (NCI-H226 [13]): 15.4 µM
- CC50 (IGROV-1 [14]): 18.8 µM
- LC50 (UO-31 [15]): 15.1 µM
- Activity (UO-31 [16]): 62.64%
- Activity (UO-31 [17]): 11.32%
- Activity (UO-31 [18]): 21.69%
- Activity (UO-31 [19]): 4.35%
- fold change (FC) (UO-31 [20]): 8.8
- fold change (FC) (UO-31 [21]): 2.06
- Activity (UO-31 [22]): 93.84%
- Activity (UO-31 [23]): 2.14%
- Activity (UO-31 [24]): 1.88%
- Activity (UO-31 [25]): 0.33%
- Activity (UO-31 [26]): 293.6 pg/mL
- IC50 (DNA topoisomerase 2-beta [27]): 0.86 µM
- Ratio IC50 (DNA topoisomerase 2-beta [28]): 4
- Ratio IC50 (DNA topoisomerase 2-beta [29]): 3
- diameter of the inhibition zone (DIZ) (Bacillus subtilis): 27 mm
- diameter of the inhibition zone (DIZ) (Staphylococcus aureus): 25 mm
- diameter of the inhibition zone (DIZ) (Escherichia coli): 25 mm
- diameter of the inhibition zone (DIZ) (Pseudomonas aeruginosa): 27 mm
